Laboratory results taken from US20210220340A1, “COMPOSITION FOR PREVENTION OR TREATMENT OF NEURODEGENERATIVE DISEASE” (THE ASAN FOUNDATION, priority 2018, published 2021).

Columns and labels:
[1] = test system: P301L tau; assay: Tau accumulation on AMX treatment (western blotting); format: cell-based
Procedure: (§1) Each type of cell was cultured under the culture conditions, a cell culture was restored, followed by preparing a particulate fraction in a 50 mM Tris buffer. Proteins obtained from the cell culture developed in a SDS polyacrylamide gel, transferred to an immobilon-P membrane (Millipore, USA), and reacted with antibodies overnight. Next day, western blots were washed, reacted with peroxidase-linked secondary antibodies at room temperature for 1 hour, followed by staining bands with 4-chloro-1-naphthol.
(§2) FIG. 16 is a graph representing the percent activity (% activity) according to the concentrations of finally selected amlexanox (AMX) for various PDE isoforms, and FIGS. 17 and 18 show western blotting images representing the amyloid beta expression pattern and G93A SOD-1 and P301L tau expression when amyloid beta-accumulated pericytes and astrocytes are treated with the finally selected amlexanox (AMX).

[2] = test system: mouse pericytes; assay: Zinc concentration in pericytes (Zinpyr-1 fluorescence); format: cell-based
Description: FIG. 20 is a set of confocal microscope images of groups of mouse pericytes, which are not treated (CTL) or treated with finally-selected amlexanox (AMX) (PDEi), in which, to measure a zinc concentration, fluorescence intensity was detected by treating the cells with a fluorescent dye (Zinpyr-1) for detecting zinc ions.

[3] = test system: amyloid beta-accumulated pericytes and astrocytes; assay: Amyloid beta expression pattern on AMX treatment (western blotting); format: cell-based, mouse; conditions: amyloid beta injected and accumulated in pericytes and astrocytes, then AMX
Procedure: (§3) For astrocyte culture, first, cerebral cortices (neocortices) were dissociated from murine fetuses (3 weeks old), and the obtained cortical tissue was divided into single cells. […] New cells were cultured and used each time without passaging.
as §1, §2

[4] = test system: all PDE isoforms; assay: HTS using all PDE isoforms as targets; format: biochemical
Procedure: (§4) Compounds included in the library of 800 FDA-approved drugs were diluted 1/4 from a concentration of 100 μM and dispensed into each well in 96-well plates, and mixed with a PDE reactant to allow a PDE reaction with the drug for 1 hour at a constant temperature.
The experiment was carried out in the same manner as used in screening of the FDA-approved drug library. […] Each of the screening library drugs were diluted 1/4 from 100 μM and dispensed into each well in 96-well plates, and mixed with a PDE reactant, followed by allowing a reaction between the drug and PDE for 1 hour for storage. After a stop solution was mixed with a AMP detection agent, the mixture was dispensed at 20 μl per well to allow a reaction for 10 minutes, followed by immediately measuring luminescence, and the experiment was performed according to a protocol provided by the kit used herein.
The first selection started with PDE3 as a target, and after candidate drugs were selected, all PDE isoforms were tested.

[5] = test system: astrocytes; assay: H2O2 oxidative damage cell death in astrocytes (LDH method); format: cell-based; conditions: H2O2, after 24 hours
Procedure: as §3
Specifically, cell death caused by oxidative damage was induced by injecting H2O2 into astrocytes, a cell culture model similar to the animal model with a neurodegenerative disease such as Alzheimer's disease or Lou Gehrig's disease was manufactured. To confirm the cell protective effect of amlexanox (AMX) in the cell model manufactured as described above, an untreated H2O2 control and an experimental group produced by administering amlexanox (AMX) into the untreated H2O2 control were prepared, and after 24 hours, cell death was quantitatively assessed by a LDH method.

[6] = test system: mouse pericytes; assay: Lysosome pH in bafilomycin A1-treated pericytes (LysoSensor, confocal microscope); format: cell-based; conditions: cells alkalized by bafilomycin A1
Description: A system that can visualize changes in intracellular lysosome pH with LysoSensor, which is a pH-sensitive lysosomal dye, in mouse pericytes using a confocal microscope was established (refer to Example 6) to observe whether amlexanox (AMX) is involved in the pH change of lysosomes in cells.
FIG. 19 is a set of time-dependent confocal microscope images (left) of mouse pericytes when being treated with Bafilomycin A1, which is a vATPase inhibitor, and then stained with LysoSensor, and quantified data (right) thereof.
Here, the images on the left side of FIG. 19 are obtained by treating mouse pericytes with bafilomycin A1, which is a vATPase inhibitor, and analyzing the cells using LysoSensor over time by a confocal microscope (top), and by treating the bafilomycin A1-treated mouse pericytes with the finally selected amlexanox (AMX) and analyzing the cells using LysoSensor over time by a confocal microscope (bottom).

[7] = test system: PDE3; assay: HTS drug screening for PDE3 (PDELight HTS cAMP Phosphodiesterase Kit, luminescence); format: biochemical; conditions: compared with conventional drugs
Procedure: For drug screening, high-throughput screening (HTS) was used.
In addition, as described above, in the present invention, to screen materials for treating neurodegenerative diseases such as Alzheimer's disease and Lou Gehrig's disease, among PDE isoforms, PDE3 was selected as a target, and an optimized concentration to be used in the experiment was selected to construct a drug screening system as shown in FIG. 9.
as §4
For drug efficacy screening for PDE inhibition, HTS was used. cAMP-based screening was conducted with an FDA-approved drug library and a Selleckchem library based on the conventional PDE inhibitor. The experiment was carried out in the same manner as used in screening of the FDA-approved drug library. Compared with cilostazol, which is known as a PDE3 inhibitor, drugs with high inhibitory activity were selected. […] After a stop solution was mixed with a AMP detection agent, the mixture was dispensed at 20 μl per well to allow a reaction for 10 minutes, followed by immediately measuring luminescence, and the experiment was performed according to a protocol provided by the kit used herein.

[8] = test system: G93A SOD-1; assay: G93A SOD-1 accumulation on AMX treatment (western blotting); format: cell-based
Procedure: as §1, §2

[9] = test system: G93A SOD-1 mice; assay: Survival rate and motor behaviour in Lou Gehrig's disease animal model; format: in vivo, mouse
Description: G93A SOD-1 mice in which a mutant protein of the ALS-related gene SOD-1 (the expression of an amino acid at codon 93, in which glycine is substituted with alanine) of a human were used as Lou Gehrig's disease animal models. The G93A SOD-1 mice were purchased by the Jackson Laboratory (USA).
In the animal models of Lou Gehrig's disease, spinal motor neuron death occurs, causing limb paralysis at one or both sides. The clinical scoring system was differentiated using the following neurological scoring system.
The mice were euthanized at 0 points (Weydt et al. 2003). In the Lou Gehrig's disease animal models, which is one of the neurodegenerative disease models, a vehicle or amlexanox (AMX) was intraperitoneally administered at 2.5 mg/kg once daily for 5 days, and then a survival rate was measured through a behavioral experiment.
The behavioral experiment was performed on each of the AMX-administered group and the control (Veh) once or twice a week before symptoms occur until death. A method of gradually increasing a speed from 4 rpm to 40 rpm and a method of exercising at a constant speed of 15 rpm for 10 minutes were selected. The time to fall off from a rod was recorded to analyze the difference between the AMX-administered group and the control group.
Changes in survival rate were confirmed by intraperitoneal injection into G93A-SOD mice daily at various AMX concentrations.

[10] = G93A-SOD mice, AMX at various concentrations, compared with untreated control

CC(C)c1ccc2oc3nc(N)c(C(=O)O)cc3c(=O)c2c1 [amlexanox, 2-amino-7-isopropyl-5-oxo-5H-[1]benzopyrano[2,3-b] pyridine-3-carboxylic acid]
accumulation of toxic protein Tau [1]: reduced
concentration of zinc in the cell [2]: restored and increased to a normal level
aggregation of amyloid beta protein [3]: inhibited
reducing efficacy for all PDE isoforms [4]: excellent reducing efficacy
cell death [5]: up to 40%
time to restore (acidify) the lysosome pH environment to the original state [6]: ≤ 60 minutes
inhibitory effect specific for PDE3 [7]: significant inhibitory effect
accumulation of toxic protein G93A SOD-1 [8]: reduced
survival rate ([9]; G93A SOD-1 mice, 2.5 mg/kg intraperitoneal once daily 5 days a week from week 10): 130.2 ± 2.0 days
onset of ataxia [9, 10]: slower
progression of ataxia [9, 10]: reduced
survival rate ([9]; G93A-SOD mice, daily intraperitoneal injection at various AMX concentrations, compared with Veh group): concentration-dependently increased
